The source of these data is patent US12064459B2, “Compositions and methods for improving skin health and for the treatment and prevention of diseases, disorders and conditions associated with pathogenic microbes” (priority 2019, dated 2024).

The test system of one test is DB00118. The test is described as follows: Antibiotic MIC tests. It counts as cell-based, Janthinobacterium lividum. As to conditions: strain DB00118. As to the method: (§1) The antibiotic resistance profile and MICs tests were performed using Janthinobacterium lividum grown from cultures purified and grown in vegitone LB broth.
A further test relates to DB02378. The test is described as follows: Antibiotic MIC tests. It counts as cell-based, Janthinobacterium lividum. The following applies: strain DB02378. As to the method:
as §1

The next test deals with DB00121. Description: Antibiotic MIC tests. It counts as cell-based, Janthinobacterium lividum. The following applies: strain DB00121. As to the method:
as §1

The subject of a further test is DB02473. Description: Antibiotic MIC tests. It is filed as cell-based, Janthinobacterium lividum. The following applies: strain DB02473. As to the method:
as §1

The test system of test [1] is E. Coli ATCC25922. The following applies: cited from earlier work.
In test [2] the test system is E. Coli ATCC25922. The test is described as follows: Antibiotic MIC tests. It is filed as cell-based. As to conditions: Escherichia coli.
For test [3], the system named is Janthinobacterium lividum strains. The test is described as follows: Antibiotic MIC tests, resistance profile in words. It is filed as cell-based. As to conditions: Table 7 and 8. As to the method:
as §1

The test system is the same in test [4]. The test is described as follows: Internal antibiotic resistance tests (BD BBL Sensi-Disc, zone of inhibition). It is filed as cell-based. As to conditions: all 5 strains; disc content per antibiotic (e.g. penicillin 10 IU); FIG. 5. As to the method:
One Janthinobacterium lividum colony of 3-day old grown in 50% BHI agar was mixed well in 1 ml of 1×PBS buffer, diluted 10× and 100×, respectively. 200 μl of diluted Janthinobacterium lividum cells were evenly plated onto R2A/BHI agar plates in triplicate in 150 mm petri dishes. Antibiotic discs (BD BBL Sensi-Disc antimicrobial susceptibility test discs) were dispensed using a Disc dispenser (BD BBL Sensi-Disc Designer Dispenser System, 12-Place). Plates were incubated for 2-3 days at room temperature and imaged at the end of incubation.
The sensitivity of Janthinobacterium lividum to antibiotics is reflected by a clear zone of inhibition of Janthinobacterium lividum cells surrounding the antibiotic discs. The zone of inhibition was measured using ImageJ and was transformed into cm for analysis.

Where [5] appears, read: Janthinobacterium lividum, read-out: MIC.

Converted amounts (≈) assume the structure as drawn. Read-outs that look alike come from different tables or passages of the source. Where a SMILES comes first, the peptide text is derived from it. Bridges are numbered along the chain shown (N, C = ends). [ ]: non-standard residue; d: D form. The star is where a group is joined. Ileψ(thiazoline)Cys = CC[C@H](C)[C@H](N)C1=N[C@H](C(=O)*)CS1; dOrn = NCCC[C@@H](N)C(=O)O A value given as a limit tells only on which side of the number the result lay.

For orientation: MIC means the lowest concentration that inhibits growth of the organism.

As to `NCC[C@H](O)C(=O)N[C@@H]1C[C@H](N)[C@@H](O[C@H]2O[C@H](CN)[C@@H](O)[C@H](O)[C@H]2O)[C@H](O)[C@H]1O[C@H]1O[C@H](CO)[C@@H](O)[C@H](N)[C@H]1O` [Amikacin], the MIC with DB00118 (setting [5]) was 2 µg/mL (≈ 3.42 µM); in the test with DB02378 (setting [5]), 2 µg/mL (≈ 3.42 µM); in the test with DB00121 (setting [5]), 1 µg/mL (≈ 1.71 µM); in the test with DB02473 (setting [5]), 2 µg/mL (≈ 3.42 µM); in the test on E. Coli ATCC25922 [2], 2 µg/mL (≈ 3.42 µM). Further, the “MIC, CLSI QC ranges” value with E. Coli ATCC25922 [1] was 0.5 to 4 µg/mL.
Take `C[C@H]1[C@H](NC(=O)/C(=N\OC(C)(C)C(=O)O)c2csc(N)n2)C(=O)N1S(=O)(=O)O` [Aztreonam]: the MIC is 32 µg/mL (≈ 73.5 µM) in the test with DB00118 (setting [5]); 16 µg/mL (≈ 36.7 µM) with DB02378 (setting [5]); 16 µg/mL (≈ 36.7 µM) in the test with DB00121 (setting [5]); 16 µg/mL (≈ 36.7 µM) in the test with DB02473 (setting [5]); 0.25 µg/mL (≈ 0.574 µM) with E. Coli ATCC25922 [2]. Further, in test [3], the “sensitivity of Janthinobacterium lividum strains to antibiotics” value (shortened to “sensitivity … to antibiotics”) is “less sensitive”.
Turning to `CC[C@H](C)[C@H](N)C1=N[C@H](C(=O)N[C@@H](CC(C)C)C(=O)N[C@H](CCC(=O)O)C(=O)N[C@H](C(=O)N[C@H]2CCCCNC(=O)[C@H](CC(N)=O)NC(=O)[C@@H](CC(=O)O)NC(=O)[C@H](Cc3cnc[nH]3)NC(=O)[C@@H](Cc3ccccc3)NC(=O)[C@H]([C@@H](C)CC)NC(=O)[C@@H](CCCN)NC2=O)[C@@H](C)CC)CS1` [Bacitracin] ({Ileψ(thiazoline)Cys}-L[dE]IK[dOrn]I[dF]H[dD]N; lactam 4-C), the minimal inhibitory concentration (MIC) in the test with DB00118 (setting [5]), in the test on DB02378 (setting [5]), with DB00121 (setting [5]), in the test on DB02473 (setting [5]) and against E. Coli ATCC25922 [2] was over 64 µg/mL throughout. Moreover, the “sensitivity … to antibiotics” value in test [3] is “resistant”.
Take `O=C(N[C@H](CO)[C@H](O)c1ccc([N+](=O)[O-])cc1)C(Cl)Cl` [Chloramphenicol]: the “sensitivity of Janthinobacterium lividum to antibiotic discs” value (“sensitivity … to antibiotic discs” below) in test [4] is on record as “sensitive”. Moreover, the MIC in the test on DB00118 (setting [5]) stood at 2 µg/mL (≈ 6.19 µM); with DB02378 (setting [5]), 2 µg/mL (≈ 6.19 µM); with DB00121 (setting [5]), 2 µg/mL (≈ 6.19 µM); in the test with DB02473 (setting [5]), 2 µg/mL (≈ 6.19 µM); against E. Coli ATCC25922 [2], 4 µg/mL (≈ 12.4 µM). In addition, in the test on E. Coli ATCC25922 [1], the “MIC, CLSI QC ranges” value was 2 to 8 µg/mL. Besides, the “sensitivity … to antibiotics” value in test [3] is given as “less sensitive”.
In the case of `O=C(O)c1cn(C2CC2)c2cc(N3CCNCC3)c(F)cc2c1=O` [Ciprofloxacin], in test [4], the “sensitivity … to antibiotic discs” value is given as “sensitive”. For the same compound, the MIC in the test with DB00118 (setting [5]) is 0.5 µg/mL (≈ 1.51 µM); in the test on DB02378 (setting [5]) it was 0.5 µg/mL (≈ 1.51 µM); in the test on DB00121 (setting [5]), 0.25 µg/mL (≈ 0.754 µM); with DB02473 (setting [5]), 0.5 µg/mL (≈ 1.51 µM).
Turning to `CC[C@H]1OC(=O)[C@H](C)[C@@H](O[C@H]2C[C@@](C)(OC)[C@@H](O)[C@H](C)O2)[C@H](C)[C@@H](O[C@@H]2O[C@H](C)C[C@H](N(C)C)[C@H]2O)[C@](C)(O)C[C@@H](C)C(=O)[C@H](C)[C@@H](O)[C@]1(C)O` [Erythromycin], in test [4], the “sensitivity … to antibiotic discs” value was “sensitive”. The MIC with DB00118 (setting [5]) came out at 15 µg/mL (≈ 20.4 µM); in the test on DB02378 (setting [5]), 8 µg/mL (≈ 10.9 µM); with DB00121 (setting [5]) it was 8 µg/mL (≈ 10.9 µM); with DB02473 (setting [5]), 15 µg/mL (≈ 20.4 µM); in the test on E. Coli ATCC25922 [2], 64 µg/mL (≈ 87.2 µM).
Turning to `C[C@@H](O)[C@H]1C(=O)N2C(C(=O)O)=C(S[C@@H]3CN[C@H](C(=O)N(C)C)C3)[C@H](C)[C@H]12` [Meropenem], the MIC in the test on DB00118 (setting [5]) is 2 µg/mL (≈ 5.22 µM); with DB02378 (setting [5]) it was 2 µg/mL (≈ 5.22 µM); in the test with DB00121 (setting [5]), 8 µg/mL (≈ 20.9 µM); with DB02473 (setting [5]) it was 2 µg/mL (≈ 5.22 µM); with E. Coli ATCC25922 [2], under 0.063 µg/mL. Besides, the “sensitivity … to antibiotics” value in test [3] is listed as “less sensitive”.
Regarding `CN(C)[C@@H]1C(O)=C(C(N)=O)C(=O)[C@@]2(O)C(O)=C3C(=O)c4c(O)cccc4[C@@](C)(O)[C@H]3C[C@@H]12` [Tetracycline], the MIC in the test on DB00118 (setting [5]) was 0.5 µg/mL (≈ 1.13 µM); with DB02378 (setting [5]), 0.5 µg/mL (≈ 1.13 µM); with DB00121 (setting [5]), 0.25 µg/mL (≈ 0.563 µM); with DB02473 (setting [5]), 0.5 µg/mL (≈ 1.13 µM); against E. Coli ATCC25922 [2], 1 µg/mL (≈ 2.25 µM).
For the compound `CC1(C)S[C@@H]2[C@H](NC(=O)[C@H](N)c3ccccc3)C(=O)N2[C@H]1C(=O)O` [ampicillin], in test [4], the “sensitivity … to antibiotic discs” value is on record as “sensitive”.
Turning to `CC(=O)OCC1=C(C(=O)O)N2C(=O)[C@@H](NC(=O)Cc3cccs3)[C@H]2SC1` [cephalothin], in test [4], the “sensitivity … to antibiotic discs” value was “sensitive”.
On the same count and under the same terms, in the case of `[H]/N=C(/N)N[C@H]1[C@H](O)[C@@H](O)[C@H](O[C@@H]2O[C@@H](C)[C@](O)(C=O)[C@H]2O[C@@H]2O[C@@H](CO)[C@H](O)[C@@H](O)[C@@H]2NC)[C@@H](N/C(N)=N\[H])[C@@H]1O` [streptomycin] it was “sensitive”.
On the same count and under the same terms, in the case of `CN[C@H](CC(C)C)C(=O)N[C@H]1C(=O)N[C@@H](CC(N)=O)C(=O)N[C@H]2C(=O)N[C@H]3C(=O)N[C@H](C(=O)N[C@H](C(=O)O)c4cc(O)cc(O)c4-c4cc3ccc4O)[C@H](O)c3ccc(c(Cl)c3)Oc3cc2cc(c3O[C@@H]2O[C@H](CO)[C@@H](O)[C@H](O)[C@H]2O[C@H]2C[C@](C)(N)[C@H](O)[C@H](C)O2)Oc2ccc(cc2Cl)[C@H]1O` [vancomycin] it was “sensitive”.
For the compound Amoxicillin clavulanate, the MIC in the test with DB00118 is 1 µg/mL; in the test on DB02378, 1 µg/mL; against DB00121 it was 0.5 µg/mL; in the test on DB02473 it was 1 µg/mL. In addition, the “sensitivity … to antibiotics” value in test [3] is reported as “less sensitive”.
penicillin: the “sensitivity … to antibiotic discs” value in test [4] is reported as “sensitive”.
